Values quoted from earlier work in patent publication US7592371B2, “External preparation” (Medrx Co., Ltd., priority 2004, dated 2009).

Settings: oral administration

For `COc1ccc(C=CC(=O)Nc2ccccc2C(=O)O)cc1OC` [tranilast, N-(3,4-Dimethoxycinnamoyl) anthranilic acid], the side effects is given as “serious side effects such as hepatic dysfunction and renal dysfunction”.
